# Test: Dissolution speed test in distilled water
# Format: physicochemical
# Conditions: 1.5 g solid, particle sizes 425-600 μm, stirred in distilled water at ambient temperature
# Protocol: Dissolution speed tests of the produced semi-crystalline particles were performed by comparison with the dissolution speed of pure crystalline glucose i.e. glucose monohydrate. Two comparative runs were carried out by using an initial mass of 1.5 g of solid inventive semi-crystalline glucose particles vs. crystalline glucose monohydrate, both having particle sizes in the range of 425-600 μm. The solid was stirred in a cylindrical vessel with distilled water at ambient temperature. In both the runs the solid disappearance was detected after 25 s, showing an equal dissolution speed of the produced semi-crystalline glucose in comparison to the crystalline glucose monohydrate.
structure (smiles),measurement,value
"O.O=C[C@H](O)[C@@H](O)[C@H](O)[C@H](O)CO [crystalline glucose monohydrate, glucose monohydrate]",time until solid disappearance was detected (dissolution speed),25 s

# Reference: patent US12565687B2, “Glucose in solid form and process for manufacturing glucose in solid form” (CARGILL, INCORPORATED, priority 2021, dated 2026)
